From patent EP0411182A1, “Ascorbic acid derivative” (NIPPON HYPOX LABORATORIES INCORPORATED, priority 1989, dated 1991)

Assay: Effects on formazan formation in the xanthine-xanthine oxidase-Nitrotetrazolium Blue system
Type: biochemical
Settings: for Inhibition ratio (%) of formazan formation: 0.05 M phosphoric acid buffer pH 7.8, 30°C
Procedure: Test example 2 (Effects on formazan formation in the xanthine-xanthine oxidase-Nitrotetrazolium Blue system)
Specimens were added to a 0.05 M phosphoric acid buffer solution (pH 7.8) containing xanthine, EDTA 2Na and Nitrotetrazolium Blue (NTB) so as to provide the respective final concentrations of 5x10⁻⁵ M, 1x10⁻⁴ M and 5x10⁻⁴ M and warmed at 30°C for 30 minutes. Xanthine oxidase (manufactured by Sigma Corp.) was added, and the resulting mixtures were warmed at 30°C for 10 minutes to colorimetrically determine formazan formed by superoxide anion radicals. The inhibition ratio of formazan formation was determined from the results at concentrations of 0.5 mM and 4 mM of each specimen.

COC(=O)COC1=C(O)[C@@H]([C@@H]2COC(C)(C)O2)OC1=O [Compound 206, L-5,6-O-isopropylidene-2-O-methylcarbomethylascorbic acid]
Inhibition ratio (%) of formazan formation (Concentration 0.5 mM): 17.8% | Inhibition ratio (%) of formazan formation (Concentration 4 mM): 55.5% | formazan formation (result in words) (summary of Table-4): remarkably inhibited formazan formation
